Reference: patent publication US20060228388A1, “Method for controlling an insect species using a synthetic trail pheromone mimic” (priority 2005, published 2006)

What was measured:
tent caterpillars = experiment: Threshold sensitivity to a narrow line of compound on a paper card; format: in vivo, Malacosoma spp.; settings: compound laid out in a narrow line on a paper card
Description: (§1) The threshold sensitivity of tent caterpillars to 5β-cholestan-3-one laid out in a narrow line on a paper card was determined to be approximately 10^−11 g/mm. Field tests were conducted by using the compound to form artificial trails that intersected well established, authentic trunk trails of colonies of 3rd-5th instar ETCs. In 19 of 23 replicates of these tests, each involving a different colony, colonies abandoned their authentic trail systems and followed the pathways marked with 5β-cholestan-3-one. […] Other studies indicate that the authentic trail pheromone of the tent caterpillar (Malacosoma spp.) may differ subtly from 5β-cholestan-3-one. Thus, 5β-cholestan-3-one is best considered an analog, or pheromone mimic of the authentic tent caterpillar pheromone.

[1] = tested on: eastern tent caterpillar colonies; experiment: Field colony disruption by blanket spraying trees with pheromone-mimic; format: in vivo, Malacosoma americanum
Description: (§2) Three experiments were conducted, all employing the following protocol. Trees in the experimental plot were divided into two groups. Trees in one group were sprayed with a 1 part per million (ppm) pheromone-mimic formulation and trees in another group were sprayed with a control solution identical to the pheromone mimic formulation except that it lacked the pheromone-mimic. Egg masses were attached to each tree and the fate of the colonies determined by observation.
(§3) In the second experiment, ten control colonies of the eastern tent caterpillar on apple trees survived and thrived while all of ten colonies on treated trees were destroyed within one week. […] While the exact fate of caterpillars on the treated trees is unknown, they most likely succumbed to a combination of weather related factors, starvation, predation, and falls from the trees.

[2] = tested on: colonies of 3rd-5th instar ETCs; experiment: Field test: artificial trails intersecting authentic trunk trails of colonies; format: in vivo, Malacosoma americanum
Description: as §1

[3] = tested on: forest tent caterpillar colonies; experiment: Field colony disruption by blanket spraying trees with pheromone-mimic; format: in vivo, Malacosoma disstria; settings: third experiment; ash trees; 1 ppm spray; within one week
Description: as §2, §3

SMILES: CC(C)CCC[C@@H](C)[C@H]1CC[C@H]2[C@@H]3CC[C@@H]4CC(=O)CC[C@]4(C)[C@H]3CC[C@]12C [5β-cholestan-3-one]
- threshold sensitivity of tent caterpillars (tent caterpillars): approximately 10^−11 g/mm
- fate of the remaining treated colonies ([1]; first experiment, cherry trees, 1 ppm spray, three remaining colonies): eventually died out
- treated colonies completely destroyed ([1]; first experiment, cherry trees, 1 ppm spray, within several days): seven of ten
- colonies on treated trees destroyed ([1]; second experiment, apple trees, 1 ppm spray, within one week): all of ten
- disrupting the communicative system of the ETC ([1]; solution containing 1 ppm): effective
- replicates in which colonies abandoned their authentic trail systems and followed the marked pathways ([2]; field, each replicate a different colony of 3rd-5th instar ETCs): 19 of 23
- competitiveness with authentic recruitment trails of the caterpillar ([2]; in vivo): fully competitive
- colonies on treated trees perished [3]: all of fifteen
